# Source: article PMC5934329 (Neuropharmacology, 2017)
# Where “and” joins values, the source holds several entries; their conditions need not be identical. Equal values may be shown once. Read-outs that look alike come from different tables or passages of the source.
# Columns and labels:
# [1] = tested on: male C57BL/6 inbred mice; assay: THC drug discrimination; format: in vivo; conditions: for Effect on response rate: compared to vehicle; for ED50 for substitution in THC discrimination: mice trained with 5.6 mg/kg THC i.p., value (95% confidence limits); for ED50: Mus musculus, ip, read-out: ED50 for substitution in THC discrimination
# [2] = target: human CB1 (hCB1) (Homo sapiens, UniProt P21554); assay: [3H]CP55,940 displacement binding at hCB1 membranes
# [3] = target: hCB2 receptor (Homo sapiens, UniProt P34972); assay: Agonist-stimulated [35S]GTPγS binding, hCB2 membranes; conditions: for Emax: read-out: [35S]GTPγS Turnover CB2 Emax
# [4] = target: human CB2 (hCB2) (Homo sapiens, UniProt P34972); assay: [3H]CP55,940 displacement binding at hCB2 membranes
# [5] = target: hCB1 receptor (Homo sapiens, UniProt P21554); assay: Agonist-stimulated [35S]GTPγS binding, hCB1 membranes; conditions: for Emax: read-out: [35S]GTPγS Turnover CB1 Emax
# [6] = target: CB1 receptors; conditions: read-out: CB1 affinity; rat CB1 receptors ref Huffman et al., 2005; cited from earlier work
# Chain of hCB2 receptor (P34972 whole entry): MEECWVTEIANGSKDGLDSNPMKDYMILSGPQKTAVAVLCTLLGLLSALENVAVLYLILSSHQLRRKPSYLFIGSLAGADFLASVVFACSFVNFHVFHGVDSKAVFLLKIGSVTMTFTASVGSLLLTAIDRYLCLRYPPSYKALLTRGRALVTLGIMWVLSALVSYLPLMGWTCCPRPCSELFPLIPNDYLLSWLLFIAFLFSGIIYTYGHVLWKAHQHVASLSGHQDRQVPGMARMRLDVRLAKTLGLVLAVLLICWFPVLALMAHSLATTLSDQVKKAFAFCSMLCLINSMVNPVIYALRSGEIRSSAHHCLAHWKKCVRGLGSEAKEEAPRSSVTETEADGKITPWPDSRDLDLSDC
# Chain of human CB2 (hCB2) (P34972 whole entry): as above
# Chain of human CB1 (hCB1) (P21554 whole entry): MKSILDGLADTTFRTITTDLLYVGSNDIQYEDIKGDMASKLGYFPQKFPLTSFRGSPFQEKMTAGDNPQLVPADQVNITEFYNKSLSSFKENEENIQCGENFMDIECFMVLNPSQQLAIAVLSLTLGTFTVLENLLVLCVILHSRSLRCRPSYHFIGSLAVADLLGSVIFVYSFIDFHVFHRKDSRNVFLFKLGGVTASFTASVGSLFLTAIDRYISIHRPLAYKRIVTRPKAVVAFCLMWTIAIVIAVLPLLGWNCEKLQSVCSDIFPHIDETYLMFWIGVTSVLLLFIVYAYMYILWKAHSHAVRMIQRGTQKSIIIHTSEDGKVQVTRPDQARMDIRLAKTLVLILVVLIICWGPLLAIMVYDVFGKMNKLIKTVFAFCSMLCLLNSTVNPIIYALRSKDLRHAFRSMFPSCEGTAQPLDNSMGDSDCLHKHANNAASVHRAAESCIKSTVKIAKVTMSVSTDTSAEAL
# Chain of hCB1 receptor (P21554 whole entry): as above
SMILES,ED50 for substitution in THC discrimination [1],Ki [2] [nM],EC50 [3] [nM],Emax [3] [%],ED50 [1] [µmol/kg],Ki [4] [nM],EC50 [5] [nM],Emax [5] [%],also measured
"CCCCCCC(C)(C)c1ccc(C2CC(O)CCC2CCCO)c(O)c1 (single isomer, unassigned; (-)) [CP55,940, (-)-cis-3-[2-Hydroxy-4-(1,1-dimethylheptyl)phenyl]-trans-4-(3-hydroxypropyl)cyclohexanol, reference compound]",0.07 (0.04-0.14) μmol/kg,,,,,,,,Substitution for THC in drug discrimination ([1]; 0.3 mg/kg): full substitution; Effect on response rate ([1]; 0.3 mg/kg): reductions in response rates
"CCCCCn1cc(C(=O)c2ccccc2I)c2ccccc21 [AM-679, (2-iodophenyl)(1-pentyl-1H-indol-3-yl)methanone]",,39.6,19,31.1,5.8,2.1,881,132,
"CN1CCCC[C@@H]1Cn1cc(C(=O)c2cccc3ccccc23)c2ccccc21 [AM-1220, (R)-(1-((1-methylpiperidin-2-yl)methyl)-1H-indol-3-yl)(naphthalen-1-yl)methanone]",,,,,0.26,0.26,,132,"[35S]GTPγS Turnover CB2 Emax ([3]; % maximal increase over basal, hCB2, value (SEM)): Not determinable; [35S]GTPγS Turnover CB2 EC50 ([3]; hCB2 membranes, value (SEM)): Not determinable"
"N#CCCCCn1cc(C(=O)c2cccc3ccccc23)c2ccccc21 [AM-2232, 5-(3-(1-naphthoyl)-1H-indol-1-yl)pentanenitrile]",,14.5,406,31.3,0.54,11.2,833,204,Substitution for THC in drug discrimination ([1]; 1.0 mg/kg): full substitution; Effect on response rate ([1]; 1.0 mg/kg): reductions in response rates
"CN1CCCCC1Cn1cc(C(=O)c2ccccc2I)c2ccccc21 (stereo not shown) [AM-2233, 1-[(N-methylpiperidin-2-yl)methyl]-3-(2-iodobenzoyl)indole]",,6.63,715,21,0.42,0.48,213,144,
"CCc1ccc(C(=O)c2cn(CCCCCF)c3ccccc23)c2ccccc12 [EAM-2201, (4-ethyl-1-naphthalenyl)[1-(5-fluoropentyl)-1H-indol-3-yl]-methanone]",,0.41,91.9,40.2,0.04,0.38,46.8,270,Effect on response rate ([1]; across the dose range tested): no doses produced significant differences from vehicle
"CCCCCn1cc(C(=O)c2ccc(CC)c3ccccc23)c2ccccc21 [JWH-210, 4-ethylnaphthalen-1-yl-(1-pentylindol-3-yl)methanone]",,,51,43.6,0.33,0.94,116,287,
"CCCCCn1cc(C(=O)Cc2ccccc2C)c2ccccc21 [JWH-251, 2-(2-methylphenyl)-1-(1-pentyl-1H-indol-3-yl)ethenone]",4.07 (3.11-5.31) μmol/kg,,,,,,,,"Ki ([2]; read-out: CB1 Ki, [3H]CP55,940 displacement, hCB1, value (SEM)): 16 nM and 16.2 nM; EC50 ([3]; read-out: [35S]GTPγS Turnover CB2 EC50, hCB2 membranes, value (SEM)): 1520 nM; Ki [6]: 29 ± 3 nM; Ki ([4]; read-out: CB2 Ki, [3H]CP55,940 displacement, hCB2, value (SEM)): 15 nM and 15.1 nM; [35S]GTPγS Turnover CB1 Emax ([5]; % maximal increase over basal, hCB1, value (SEM)): 227.6 (31.6) 3%; EC50 ([5]; read-out: [35S]GTPγS Turnover CB1 EC50, hCB1 membranes, value (SEM)): 918 nM"
"Cc1ccc(C(=O)c2cn(CCCCCF)c3ccccc23)c2ccccc12 [MAM-2201, (1-(5-fluoropentyl)-1H-indol-3-yl)(4-methyl-1-naphthalenyl)-methanone]",,1.86,1.93,23.2,0.11,0.59,36.1,310,"Potency for stimulating [35S]GTPγS turnover at CB2 relative to CP55,940 ([3]; more potent than CP55,940): approximately 4 fold; Substitution for THC in drug discrimination ([1]; 0.3 mg/kg): full substitution; Effect on response rate ([1]; 0.3 mg/kg): reductions in response rates"
"CCCCCc1cc(O)c2c(c1)OC(C)(C)[C@@H]1CCC(C)=C[C@@H]21 [THC, Δ^9-tetrahydrocannabinol, reference compound]",4.96 (3.41-7.21) μmol/kg,,,,,,,,Effect on response rate ([1]; across the dose range tested): did not alter response rates
